Data set [1] in a line: 1H NMR titration with NBu4SH (HS^− binding). The conditions noted are these: 10% DMSO-d6/CD3CN; for selectivity for HS^− over Cl^−: 1H NMR titration data. The procedure:
To investigate whether HS^− is a suitable anionic guest for compounds 1-3, we titrated NBu4SH into 0.5-1.0 mM solution of each host in 10% DMSO-d6/CD3CN and monitored the titrations by ^1H NMR spectroscopy. […] For example, upon addition of HS^− to a 0.988 mM solution of 1, the aryl CHa shifted from 7.99 to 9.24 ppm, and the NHb and NHc urea protons shift downfield from 7.94 and 8.92 to 8.63 and 11.18 ppm, respectively. […] We also confirmed that the observed changes in the NMR spectra upon HS^− addition were not merely due to deprotonation of the urea NH groups. […] Titration data of HS^− with the host fit to simple 1:1 binding isotherm models, and a new, upfield-shifted peak appears for bound hydrosulfide.
(§1) The higher selectivity is likely due to the pyridine lone pair acting as a hydrogen bond acceptor, which provides an additional stabilizing interaction for HS^− and a destabilizing interaction for Cl^−. The phenyl core of host 1 donates a hydrogen bond to both anionic guests, resulting in decreased selectivity for hydrosulfide, even if this CH hydrogen bond is an important component to the high overall binding energy.

A short description of data set [2]: UV-Vis titration with NBu4Cl in MeCN (Cl^− binding). On the procedure:
(§2) To further investigate the difference in anion selectivity, binding constants were also measured at lower concentrations by UV-Vis spectroscopy in MeCN; the data are summarized in Table 1.

Data set [3] can be described thus: UV-Vis titration with NBu4SH in MeCN (HS^− binding). The conditions noted are these: for HS^− binding constant: no DMSO co-solvent, 10 μM host. The procedure: as §2
We expected that removal of the DMSO co-solvent would increase the observed binding affinities since acetonitrile is a slightly less competitive solvent (especially as a hydrogen bond acceptor).

Data set [4] can be described thus: 1H NMR comparison titration with NBu4Cl (Cl^− binding). The conditions noted are these: 10% DMSO-d6/CD3CN.
From the text: as §1

Data set [5] in a line: Reversibility of HS^− binding (NBu4SH then Zn(OAc)2, 1H NMR). The conditions noted are these: hydrogen-bond binding; for 1: 1.0 mM in 10% DMSO-d6/CD3CN, 2 equiv NBu4SH, 4 equiv Zn(OAc)2, 5 more equiv NBu4SH.
Data set [6] in a line: 13C{1H} NMR check of alkyne reactivity toward HS^−. It is filed as physicochemical. Conditions: 2.3 mM host, 10 equivalents of HS^−.

As for `CC(C)(C)c1ccc(NC(=O)Nc2ccccc2)c(C#Cc2cccc(C#Cc3cc(C(C)(C)C)ccc3NC(=O)Nc3ccccc3)n2)c1` [Host 3], the “HS^− ΔG” value in data set [1] is -17.8 kJ/mol; in data set [3], -25.4 kJ/mol. For the same compound, the “selectivity for HS^− over Cl^−” value in data set [1] worked out at 6 fold. The “Cl^− ΔG” value is -17.6 kJ/mol in data set [2] and -13.3 kJ/mol in data set [4]. For the same compound, the “HS^− binding constant” value in data set [3] (UV-Vis) is given as ~25,000 M^−1.

For the compound `COc1ccc(NC(=O)Nc2ccc(C(C)(C)C)cc2C#Cc2cccc(C#Cc3cc(C(C)(C)C)ccc3NC(=O)Nc3ccc(OC)cc3)n2)cc1` [Host 2], the “HS^− ΔG” value in data set [1] is -17.4 kJ/mol; in data set [3], -24.5 kJ/mol. The “selectivity for HS^− over Cl^−” value in data set [1] is 6 fold. Also, the “Cl^− ΔG” value in data set [2] is -18.2 kJ/mol; in data set [4], -13.3 kJ/mol. Also, the “HS^− binding constant” value in data set [3] (UV-Vis) is ~25,000 M^−1.

As to `COc1ccc(NC(=O)Nc2ccc(C(C)(C)C)cc2C#Cc2cccc(C#Cc3cc(C(C)(C)C)ccc3NC(=O)Nc3ccc(OC)cc3)c2)cc1` [Host 1], the figures for the “HS^− ΔG” value in data set [1] and in data set [3] were -21.1 kJ/mol and -28.3 kJ/mol, respectively. Besides, in data set [1], the “selectivity for HS^− over Cl^−” value is given as 2.8 fold. The “reversibility of HS^− binding” value in data set [5] is “confirming the reversibility of binding”. Also, the entries for the “Cl^− ΔG” value in data set [2] and in data set [4] were -25.9 kJ/mol and -18.5 kJ/mol, respectively. In addition, the “selectivity HS^−:Cl^−” value in data set [3] (UV-Vis) is reported as “remained similar to the 10% DMSO-d6/CD3CN system”. In addition, the “HS^− binding constant” value in data set [3] (UV-Vis) is listed as 90,300 M^−1. Further, the “reactivity of host alkynes toward HS^−” value in data set [6] is “alkynes were unreactive toward HS^−”.

The values above are taken from patent US11187690B2, “Synthetic receptors for hydrosulfide” (University of Oregon, priority 2016, dated 2021).
